For data set [1] the following is noted: compared to dextromethadone and deuterated dextromethadone (D9, D10, D16), PCT/US2018/016159; cited from earlier work.
Data set [2] in a line: Chronic Unpredictable Stress (CUS) protocol with SPT, FUST, NSFT. The note with it: single dose.
Description: The present inventors also performed behavioral analysis of the effect of both d-methadone and ketamine on rats exposed to a Chronic Unpredictable Stress (CUS) protocol.
The test system of a further data set is NMDAR. Particulars: cited from earlier work; for trapping: Zanos et al. 2018.
The nature of the next data set: Forced Swim Test (FST). The note with it: drug treated vs. vehicle treated animals; d-methadone 10, 20, 40 mg/kg. Type of data set: in vivo.
Data set [3] is described as follows: Novelty Suppressed Feeding Test (NSFT). Particulars: 72 hr after administration, vs. vehicle.
Data set [4] in a line: Female Urine Sniffing Test (FUST). The note with it: 24 hr after administration, vs. vehicle.
The subject of data set [5] is ARPE-19 cells. The experiment in a line: ROS production in ARPE-19 cells. The note with it: 1 mM L-Glu + 30 μM antagonist; statistical significance not reached.
Protocol: This study was conducted also on the retinal cell line ARPE-19 in order to verify how NMDAR activation and blockade influence ROS production.
The test system of data set [6] is ARPE-19 cells. The experiment in a line: ARPE-19 cell viability after L-glutamate. Particulars: pretreatment before 1 mM L-glutamate; dextromethadone 30 microMolar.
The subject of data set [7] is ARPE-19 cells. The data set is described as follows: Relative gene expression (NMDAR1, p65, TNF-α, IL-6) in ARPE-19 cells. Type of data set: cell-based. Particulars: pretreatment before 1 mM L-glutamate. As to the method: Once the effect of NMDAR antagonists on nuclear translocation of p65 was verified, in order to confirm their anti-inflammatory effect, the present inventors investigated the changes of gene expression levels of the pro-inflammatory cytokines IL-6 (interleukin-6) and TNF-α, the transcription factor p65 and the NMDA receptor.
The first gene for which the level of gene expression was assessed is the 1A subunit of NMDAR receptor dimer (known as NMDAR1).

Data set [8] can be described thus: Phase 1 Single Ascending Dose (SAD) study. On the procedure: The Single Ascending Dose (SAD) study included a parallel group, double-blind, placebo-controlled design. The objectives of the study were to establish PK, PD, and safety of single dose administration. Administration involved cohorts of 5, 20, 60, 100, 150, 200 mg and N=42.
For data set [9], the system named is brain derived neurotrophic factor (BDNF). The note with it: 25 mg, 4 hours after administration, vs pre-treatment.
In a further data set the test system is GluR1 and PSD95. The experiment in a line: mTORC1 signaling proteins and synaptic proteins in PFC and hippocampus. Particulars: rat models of depression.
Data set [10] is described as follows: Phase 1 Multiple Ascending Dose (MAD) study. Type of data set: in vivo, healthy opioid-naïve volunteers. As to the method:
The objective of the Multiple Ascending Dose (MAD) study was to establish PK, PD, and safety of once daily, 10-day administration. Administration involved cohorts of 25, 50, 75 mg and N=24.

Description for GluR1 and PSD95: Levels of phospho proteins were normalized to total proteins and levels of synaptic proteins were normalized the GAPDH. Results are the mean±S.E.M., n=10-12/group.

As for `COc1ccc2c(c1)[C@]13CCCC[C@@H]1[C@H](C2)N(C)CC3` [Dextromethorphan, dextromethorphan], the half-life result in data set [1] is listed as “significantly shorter half-life”.
Regarding `CNC1(c2ccccc2Cl)CCCCC1=O` (stereo not shown) [Ketamine, ketamine], in data set [2], the “behavioral effects of CUS (SPT, FUST, NSFT)” value was “prevented the behavioral effects of CUS”. In addition, the trapping in the data set on NMDAR was 86%. Also, in the data set “Forced Swim Test (FST)”, the “effect in the Forced Swim Test (immobility, climbing, swimming counts)” value is given as “significant improvements”. In addition, the “effect in the Novelty Suppressed Feeding Test” value in data set [3] is reported as “significant improvements”. Also, the “effect in the Female Urine Sniffing Test” value in data set [4] is recorded as “significant improvements”.
On to `C[C@]12N[C@H](Cc3ccccc31)c1ccccc12` [MK-801], for which the ROS production result in the data set on ARPE-19 cells [5] is listed as “tendency to decrease”. The “effect on L-glutamate-induced cell viability decrease” value with ARPE-19 cells [6] is reported as “protective effect on cell viability”. In the data set on NMDAR, the trapping is given as 100%. Besides, in the data set on ARPE-19 cells [7], the IL-6 gene expression entry is given as “tendency to decrease”, the NMDAR1 gene expression entry was “only slightly evident” and the TNF-α gene expression entry is “restored to normal levels”.
As to `CC12CC3CC(C)(C1)CC(N)(C3)C2` [Memantine, memantine], in the data set with NMDAR (NMDA receptor block), the off rate was ~5 s and the on rate is 1 s.
As to `c1ccc(C2(N3CCCCC3)CCCCC2)cc1` [PCP], in the data set on NMDAR, the trapping is recorded as 98%.
On to `CCC(=O)C(C[C@H](C)N(C)C)(c1ccccc1)c1ccccc1` [dextromethadone], for which the ROS production result in the data set with ARPE-19 cells [5] is reported as “tendency to decrease”. Further, the “effect on L-glutamate-induced cell viability decrease” value in the data set with ARPE-19 cells [6] is “protective effect on cell viability”. Besides, the “behavioral effects of CUS (SPT, FUST, NSFT)” value in data set [2] is “prevented the behavioral effects of CUS”. Also, in data set [8] (single dose), the “Maximum tolerated dose (MTD)” value is recorded as 150 mg. In data set [8] (up to 150 mg), the opioid effects result was “no clinically significant opioid effects”. In addition, the “subjects with an increase in BDNF levels post treatment” value in data set [9] was 6 of 6. For the same compound, in the data set with ARPE-19 cells [7], the IL-6 gene expression result is reported as “tendency to decrease”, the NMDAR1 gene expression entry was “up to 9 times when compared to the expression level of vehicle-treated cells”, the TNF-α gene expression result is given as “restored to normal levels” and the p65 gene expression entry is “decrease in gene expression of p65”. Moreover, the “effect in the Novelty Suppressed Feeding Test” value in data set [3] was “significant improvements”. Besides, in the data set with GluR1 and PSD95, the “levels of GluR1 and PSD95” value is on record as “increase”. Also, the “dissociative or psychotomimetic adverse events” value in data set [10] (at the tested doses (SAD and MAD)) is reported as “did not cause dissociative or psychotomimetic adverse events”. Besides, in data set [10] (daily doses up to 75 mg for 10 days (single doses up to 150 mg)), the tolerability entry is listed as “well tolerated”. The “PK: Cmax, AUCtau Day 1; Cmax, AUCtau, Css Day 10” value in [10] (once daily 25, 50, 75 mg, 10 days) is “linear PK with dose proportionality”. For the same compound, the “effect in the Female Urine Sniffing Test” value in [4] was “significant improvements”.
